Assays:
[1] = target: T1, α1b (hamster) adrenoceptor (Mesocricetus auratus, UniProt P18841); experiment: Radioligand binding cloned α1b adrenoceptor expressed in LTK cells, [3H]-prazosin; details: LTK cell membranes, [3H]prazosin 0.2 nM
T1 construct: expressed in transfected cells; cDNA from TULCO
T1 sequence (P18841 1-515): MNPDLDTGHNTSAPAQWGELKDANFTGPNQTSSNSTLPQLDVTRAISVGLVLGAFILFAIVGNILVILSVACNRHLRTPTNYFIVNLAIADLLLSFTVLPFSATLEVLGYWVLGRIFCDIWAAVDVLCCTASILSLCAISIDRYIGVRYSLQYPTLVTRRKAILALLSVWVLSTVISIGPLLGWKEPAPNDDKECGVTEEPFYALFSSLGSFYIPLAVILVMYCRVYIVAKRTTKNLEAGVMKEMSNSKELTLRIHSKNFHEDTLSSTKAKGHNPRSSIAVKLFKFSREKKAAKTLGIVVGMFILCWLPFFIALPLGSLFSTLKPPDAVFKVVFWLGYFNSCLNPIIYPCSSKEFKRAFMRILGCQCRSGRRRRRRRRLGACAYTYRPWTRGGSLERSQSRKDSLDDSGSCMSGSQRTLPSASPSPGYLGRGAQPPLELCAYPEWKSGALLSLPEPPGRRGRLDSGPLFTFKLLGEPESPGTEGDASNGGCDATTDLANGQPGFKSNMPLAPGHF
Description: (§1) Representative compounds of the invention were evaluated for α-adrenoceptor binding affinity in vitro using [^3 H]-prazosin as the radioligand and two cloned α1 adrenoceptors expressed in LTK cells: α1b (hamster), and α1d (rat). Additionally, binding affinity against the pharmacologically defined α1A adrenoceptor (rat submaxillary gland) was measured.
(§2) The cDNA clones encoding the α-1 adrenoceptors (α1b and α1d) were obtained from TULCO (Triangle Universities Licensing Consortium, Research Triangle Park, N.C.) and inserted into the eukaryotic expression vector SnaB30. In this vector, expression of the adrenoceptor gene is under the transcriptional control of an SV40 early promoter. Positive drug selection is provided by a neomycin-resistance gene. Mouse fibroblast cells (LTK) were transfected with the α1 expression plasmids and grown in Dulbecco's modified Eagle's medium (DMEM) containing 10% fetal calf serum and […] G418. Stable G418-resistant parental lines were generated and successful expression of adrenoceptor protein was monitored using radioligand binding techniques. Stable single cell clones derived from the parental lines were screened in adrenoceptor binding assays to identify clones having high adrenoceptor density. Roller bottle cultures of the cloned lines were used to provide cell membranes for subsequent adrenoceptor binding characterization studies. A cell line containing the SnaB30 vector expressing the human erythropoietin gene served as a negative control.
For adrenoceptor binding assays, large scale membrane preparations were utilized in which 6 million cells were seeded into small (450 cm^2) Corning tissue culture roller bottles. 200 mL of DMEM containing 10% fetal calf serum and […] G418 were added to each roller bottle. A 95% air/5% CO2 gas mixture (sterile) was injected into each roller bottle prior to sealing. The bottles were incubated at 37° C. on a roller rack for 5 days. Cells were re-fed with fresh medium after 3 days in culture.
On the fifth day of culture, growth medium was removed from cells grown in the roller bottles, and the cells were washed twice with PBS (Sigma, 120 mM NaCl, 2.7 mM KCl, 10 mM Na2 HPO4 --NaH2 PO4, pH=7.4). Cells were detached from the roller bottles by incubating for 15 minutes at 37° C. in a Tris-EDTA solution (10 mM Tris, 100 mM NaCl, 1 mM EDTA, pH=7.4). The cell suspension from each roller bottle was decanted into preweighed centrifuge tubes and kept on ice. An aliquot of each cell suspension was generally taken for cell counting. Cells were centrifuged at 3000×G for 5 min at 2-4° C., washed with PBS and recentrifuged. The supernatant was decanted and the pellet was weighed to determine the wet weight of cells. Cells were washed a final time in 40 vol 5 mM Tris-HCl, 5 mM EDTA, pH=7.7, centrifuged at 40,000×G for 10 minutes, homogenized in 10 mL of 50 mM Tris-HCl, 5 mM EDTA (pH=7.4), and diluted to 40 mL/tube. Homogenates were centrifuged at 40,000×G for 10 minutes. The supernatant was decanted and the pellets were rehomogenized in 50 mM Tris-HCl (pH=7.4) and centrifuged as before.
(§3) Briefly, plastic Bioblocks™ (DBM Scientific, Valencia, Calif.) were incubated at 25° C. for 50 minutes with […] of membrane homogenate (diluted with an additional 96 volumes (for cloned adrenoceptors, 12 volumes for submaxillary gland)) in 50 mM Tris-HCl buffer (pH=7.7 at the time of assay), […] of [^3 H]prazosin (0.2 nM final concentration, 75-85 Ci/mmole, DuPont-NEN Corp., Boston, Mass.), and […] of either water (for total binding) or […] phentolamine (final concentration, for non-specific binding). Following equilibration, bound radioligand was separated from free on GF/B filters (presoaked in 0.5% polyethyleneamine) using either a Brandel or Packard cell harvester. Radioactivity was determined by standard liquid scintillation techniques.

[2] = target: T2, α1A adrenoceptor (rat submaxillary gland) (Rattus norvegicus, UniProt P43140); experiment: Radioligand binding α1A (rat submaxillary gland), [3H]-prazosin
T2 construct: from tissue; host or cells: rat submaxillary gland membranes
T2 sequence (P43140 1-466): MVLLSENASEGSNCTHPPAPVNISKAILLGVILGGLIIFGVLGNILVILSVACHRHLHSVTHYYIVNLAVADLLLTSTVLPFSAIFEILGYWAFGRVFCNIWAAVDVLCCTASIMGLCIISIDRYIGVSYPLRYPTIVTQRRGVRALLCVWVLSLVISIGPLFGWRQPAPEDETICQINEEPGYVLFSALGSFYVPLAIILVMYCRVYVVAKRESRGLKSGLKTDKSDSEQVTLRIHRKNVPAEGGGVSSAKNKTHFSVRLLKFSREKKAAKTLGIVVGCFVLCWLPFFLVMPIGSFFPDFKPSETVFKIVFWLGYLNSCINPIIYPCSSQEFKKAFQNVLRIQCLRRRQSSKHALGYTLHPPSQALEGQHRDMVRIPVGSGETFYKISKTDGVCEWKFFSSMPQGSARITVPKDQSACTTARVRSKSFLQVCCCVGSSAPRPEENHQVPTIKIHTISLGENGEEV
Description: as §1
On the fifth day of culture, growth medium was removed from cells grown in the roller bottles, and the cells were washed twice with PBS (Sigma, 120 mM NaCl, 2.7 mM KCl, 10 mM Na2 HPO4 --NaH2 PO4, pH=7.4). Cells were detached from the roller bottles by incubating for 15 minutes at 37° C. in a Tris-EDTA solution (10 mM Tris, 100 mM NaCl, 1 mM EDTA, pH=7.4). […]
as §3, with “Following equilibration, bound radioligand was separated from free on GF/B filters (presoaked in 0.5% polyethyleneamine) using either a Brandel or Packard cell harvester.” left out

[3] = system: EPI induced increase in canine IUP; experiment: In vivo intraurethral pressure (IUP) in canines, inhibition of EPI induced increase; design: species or system Beagle dogs; details: in vivo pseudo pA2 by Schild analysis; antagonist i.v.; epinephrine; propranolol-treated dogs; * (tamsulosin): add 0.4 if slope adjusted to 1
Description: The intraurethral pressure (IUP) model in aged canines is an accepted model of measuring the effect of prostate smooth muscle contraction on urethral tone. Canines also have an enclosed prostate covering the urethral shaft and thus provide an anatomical correlate with humans.
Beagle dogs (Marshall Farms) greater that 2 years of age and weighing between 12 and 15 kg were pre-anesthetized with thiopental sodium 15 mg/kg i.v. (Pentothal™, Abbott Laboratories, Abbott Park, Ill.) then placed under general anesthesia (isoflurane). A 7F Swan-Ganz balloon catheter (Multiflex-list no. 41224-01, Abbott) was lubricated with a water soluble jelly, inserted into the urethral orifice and advanced approximately 40 cm in male dogs (considerably less in females) until the balloon tip was placed well inside the bladder. The balloon was then inflated with 1 mL of room air, and the catheter was slowly withdrawn just past the first resistance that is felt at the bladder neck. Preliminary experiments in which dogs were sacrificed after such placement confirmed that this technique results in consistent positioning of the balloon within the prostatic urethra in males or the corresponding location in females. The balloon port of the catheter was connected to a Gould Statham P23Dd pressure transducer interfaced to a computerized data acquisition system (Modular Instruments, Inc., Malvern, Pa.) for the measurement of intraurethral pressure (IUP).
Dogs were then treated with propranolol to block the β-adrenoceptor agonist effects of test agonists. Dose-response curves of the intraurethral pressor effect of epinephrine (EPI) were obtained before and after each of up to 3 increasing doses of a test antagonist (i.v.). Fifteen minutes were allowed after each antagonist dose for equilibration before the next agonist dose-response was initiated. The increase in IUP caused by a given agonist dose was allowed to return to baseline before the next dose was given. The estimated antagonist dissociation constant (in vivo pseudo pA2) was determined by Schild analysis (Brune, et al., Drug Development Research, 34:267-275 (1995).

α1d (rat) adrenoceptor = target: T3, α1d (rat) adrenoceptor (Rattus norvegicus, UniProt P23944); experiment: Radioligand binding cloned α1d adrenoceptor expressed in LTK cells, [3H]-prazosin; details: LTK cell membranes, [3H]prazosin 0.2 nM
T3 construct: expressed in transfected cells; cDNA from TULCO
T3 sequence (P23944 1-561): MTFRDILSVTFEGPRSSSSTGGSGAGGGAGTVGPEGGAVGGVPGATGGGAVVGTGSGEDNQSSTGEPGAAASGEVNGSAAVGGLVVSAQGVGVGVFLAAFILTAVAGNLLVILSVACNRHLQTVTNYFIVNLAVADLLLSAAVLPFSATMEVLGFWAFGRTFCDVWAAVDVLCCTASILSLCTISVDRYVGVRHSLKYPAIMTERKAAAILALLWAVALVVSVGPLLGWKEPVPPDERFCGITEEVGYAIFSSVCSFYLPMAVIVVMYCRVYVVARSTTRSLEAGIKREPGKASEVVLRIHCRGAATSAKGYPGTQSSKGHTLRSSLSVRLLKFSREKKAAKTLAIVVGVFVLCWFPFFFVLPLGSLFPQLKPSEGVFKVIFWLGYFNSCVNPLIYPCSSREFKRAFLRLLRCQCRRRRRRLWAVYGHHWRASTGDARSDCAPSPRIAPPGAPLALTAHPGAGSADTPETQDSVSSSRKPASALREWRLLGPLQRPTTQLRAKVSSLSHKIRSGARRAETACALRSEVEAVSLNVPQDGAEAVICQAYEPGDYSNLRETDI
Description: as §1
as §2, with “A cell line containing the SnaB30 vector expressing the human erythropoietin gene served as a negative control.” left out

Question: For `CCOc1ccccc1OCCN[C@H](C)Cc1ccc(OC)c(S(N)(=O)=O)c1` [tamsulosin, reference compound], which Ki [1] is on record?
Answer: 0.204 nM

Question: And the Ki [2]?
Answer: 0.028 nM

Question: And the “IUP (pA2)” value [3]?
Answer: 8.91

Question: For `COc1ccccc1N1CCN(CCn2c(=O)[nH]c3scc(-c4ccccc4)c3c2=O)CC1` [Example 1, 3-[4-(2-methoxyphenyl)piperazinylethyl]-5-phenylthieno[2,3-d]pyrimidine-2,4-dione], which Ki [1] is on record?
Answer: 3.41 nM

Question: What about the “IUP (pA2)” value [3] of the same compound?
Answer: 7.95

Question: How did the Ki [1] turn out when `COc1ccccc1N1CCN(CCn2c(=O)[nH]c3scc(-c4cccc(C)c4)c3c2=O)CC1` [Example 4, 3-[4-(2-methoxyphenyl)piperazinylethyl]-5-(3-methylphenyl)thieno[2,3-d]pyrimidine-2,4-dione] was run?
Answer: 2.74 nM

Question: `COc1cc2nc(N3CCN(C(=O)C4CCCO4)CC3)nc(N)c2cc1OC` (stereo not drawn) [terazosin, reference compound] was tested. Which “IUP (pA2)” value [3] did it give?
Answer: 6.97

Question: And the Ki (α1d (rat) adrenoceptor)?
Answer: 1.01 nM

Question: How did the Ki [1] turn out when `COc1ccccc1N1CCN(CCn2c(=O)[nH]c3sc(C)c(-c4ccccc4)c3c2=O)CC1` [Example 2, 3-[4-(2-methoxyphenyl)piperazinylethyl]-6-methyl-5-phenylthieno[2,3-d]pyrimidine-2,4-dione] was run?
Answer: 2.44 nM

Question: Which results are given for `COc1ccccc1N1CCN(CCn2c(=O)[nH]c3sc(-c4ccccc4)cc3c2=O)CC1` [Example 5, 3-[4-(2-methoxyphenyl)piperazinylethyl]-6-phenylthieno[2,3-d]pyrimidine-2,4-dione]?
Answer: Ki [1]: 1.86 nM; IUP (pA2) [3]: 8.47

Question: How did the Ki [1] turn out when `COc1ccccc1N1CCN(CCn2c(=O)c3c(-c4ccccc4)csc3n(C)c2=O)CC1` [Example 3, 3-[4-(2-methoxyphenyl)piperazinylethyl]-1-methyl-5-phenylthieno[2,3-d]pyrimidine-2,4-dione] was run?
Answer: 4.47 nM

— patent publication US6153614A, “Piperazinyl pyrimidine dione compounds selective for adrenoceptors” (Abbott Laboratories, priority 1998, dated 2000)
